From PubChem BioAssay (NCI) come the findings set out here.

The structures appear in SMILES notation.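 Where inhibition never reached the appropriate level, the endpoint shown equals the highest concentration tested. Otherwise, values were interpolated linearly from a five-concentration, 48-hour dose response in 96-well plates. The concentration for 50% growth inhibition is given as GI50. TGI denotes the concentration required for complete inhibition of growth.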

Test systems include SW-620 colon; 786-0 renal; MALME-3M melanoma; COLO 205 colon; RPMI-8226 leukemia; LOX IMVI melanoma; OVCAR-4 ovarian; SK-OV-3 ovarian; PC-3 prostate; MCF7 breast.
What all share (experiment): growth of human tumour cells (NCI), 48 h

In the case of `Cc1ccc2nc(NC(=O)C(=O)C(C#N)c3ccc(Cl)cc3)sc2c1` (stereo not drawn), the TGI with SW-620 colon, in the test on 786-0 renal, in the test with MALME-3M melanoma, with COLO 205 colon, with RPMI-8226 leukemia and in the test on LOX IMVI melanoma was above 50 µM throughout. In addition, the TGI in the test with OVCAR-4 ovarian and in the test with SK-OV-3 ovarian was above 50 µM throughout.

Turning to `CC(=O)OC12C=C(C)C(C(C)C1)C1C(=O)N(CCN3CCCCC3)C(=O)C12` (stereo not drawn), the GI50 in the test with SW-620 colon, with 786-0 renal, in the test on MALME-3M melanoma, with COLO 205 colon, in the test with PC-3 prostate and with LOX IMVI melanoma was above 50 µM throughout. The GI50 in the test with OVCAR-4 ovarian and with SK-OV-3 ovarian was above 50 µM in each case. Also, the TGI with SW-620 colon, in the test with 786-0 renal, in the test on MALME-3M melanoma, in the test with COLO 205 colon, in the test with PC-3 prostate and in the test on LOX IMVI melanoma was above 50 µM in each case. In addition, the TGI in the test on OVCAR-4 ovarian and in the test on SK-OV-3 ovarian was above 50 µM throughout.

Regarding `COc1ccc2oc3c(OC)c(OC)c(OC)cc3c(=O)c2c1`, the TGI in the test with SW-620 colon, in the test with 786-0 renal, in the test on MALME-3M melanoma, in the test on COLO 205 colon, in the test on RPMI-8226 leukemia and in the test on LOX IMVI melanoma was above 100 µM throughout. Further, the TGI with OVCAR-4 ovarian and with SK-OV-3 ovarian was above 100 µM throughout.

Consider `N#CC(C(=O)CCCC(=O)Nc1ccc(Cl)cc1Cl)c1ccccc1` (stereo not drawn), for which the TGI in the test with SW-620 colon, with 786-0 renal, in the test on MALME-3M melanoma, with COLO 205 colon, with LOX IMVI melanoma and in the test on OVCAR-4 ovarian was above 100 µM throughout. The molecule also came in with a TGI in the test on SK-OV-3 ovarian above 100 µM.

In the case of `Cc1ccc(N=C[N-]c2ccc(C)cc2)cc1.Cc1ccc(N=C[N-]c2ccc(C)cc2)cc1.O=C([O-])C(F)(F)F.O=C([O-])C(F)(F)F.[OH3+].[OH3+].[Rh+2].[Rh+2]`, the GI50 with SW-620 colon is 31.9 µM; with 786-0 renal it was 23.5 µM; with MALME-3M melanoma, 28 µM; in the test with COLO 205 colon it was 36.3 µM; in the test on RPMI-8226 leukemia, 18.9 µM; in the test on LOX IMVI melanoma, 31.1 µM. Moreover, the GI50 in the test with OVCAR-4 ovarian is 44.6 µM; in the test with SK-OV-3 ovarian it was above 100 µM. In addition, the TGI is above 100 µM in the test with SW-620 colon; 58.5 µM in the test on 786-0 renal; 56.1 µM in the test with MALME-3M melanoma; above 100 µM in the test with COLO 205 colon; 40.6 µM in the test with RPMI-8226 leukemia; above 100 µM in the test on LOX IMVI melanoma. The TGI with OVCAR-4 ovarian and in the test with SK-OV-3 ovarian was above 100 µM each time.

On to `COc1cc2c(c(OC)c1OC)-c1ccc(SC)c(=O)cc1[C@@H](NCc1ccc([N+](=O)[O-])cc1)CC2`, for which the TGI was above 100 µM in the test on SW-620 colon; above 100 µM with 786-0 renal; above 100 µM with MALME-3M melanoma; 0.0145 µM in the test with COLO 205 colon; above 100 µM with RPMI-8226 leukemia; above 100 µM with LOX IMVI melanoma.

With `CC(C)c1cccc(C(C)C)c1N1C(=O)C(=O)C(c2nc3ccccc3o2)C(=O)C1=O`, the TGI is above 100 µM in the test on SW-620 colon; 84.3 µM in the test on 786-0 renal; above 100 µM in the test on MALME-3M melanoma; above 100 µM in the test on COLO 205 colon; above 100 µM in the test with RPMI-8226 leukemia; above 100 µM in the test with LOX IMVI melanoma. Besides, the TGI with OVCAR-4 ovarian and in the test with SK-OV-3 ovarian was above 100 µM in each case.

For `CC1=C(C(=O)Nc2ccccc2)C(c2ccccc2Cl)C(C(=O)Nc2ccccc2)=C(C)N1`, the TGI with SW-620 colon amounted to 76.2 µM; with 786-0 renal it was 42.1 µM; in the test with MALME-3M melanoma, 39.7 µM; with COLO 205 colon, 34.3 µM; with RPMI-8226 leukemia, 46.9 µM; in the test on LOX IMVI melanoma, 33.6 µM. Also, the TGI with OVCAR-4 ovarian was above 100 µM; in the test with SK-OV-3 ovarian it was 80 µM.

For the molecule `O=C(O)CCNS(=O)(=O)c1ccc2ccccc2c1`, the TGI with SW-620 colon, with 786-0 renal, with MALME-3M melanoma, in the test with COLO 205 colon, with RPMI-8226 leukemia and with LOX IMVI melanoma was above 100 µM each time. Moreover, the TGI in the test with OVCAR-4 ovarian and in the test with SK-OV-3 ovarian was above 100 µM throughout.

With `Cc1c(C(=O)O)n(C)c(=O)n(C)c1=O`, the TGI in the test on SW-620 colon, with 786-0 renal, with MALME-3M melanoma, in the test on COLO 205 colon, in the test with LOX IMVI melanoma and in the test on OVCAR-4 ovarian was above 100 µM each time. This molecule displayed a TGI in the test on SK-OV-3 ovarian above 100 µM.

Turning to `CC1=C(SC#N)S(=O)(=O)N(c2ccccc2)C(C)=C1SC#N`, the TGI in the test on SW-620 colon, in the test on 786-0 renal, in the test on MALME-3M melanoma, in the test with RPMI-8226 leukemia, in the test with LOX IMVI melanoma and in the test on OVCAR-4 ovarian was above 100 µM in each case. This molecule also yielded a TGI with SK-OV-3 ovarian of 89.9 µM.

As for `O=C(NNc1ccc(Cl)cc1)C1CCC(CNS(=O)(=O)c2ccccc2Cl)CC1` (stereo not drawn), the GI50 in the test on SW-620 colon was 40.6 µM; with 786-0 renal, 13.7 µM; with MCF7 breast, 4.88 µM; in the test with PC-3 prostate it was 3.69 µM; with RPMI-8226 leukemia, 4.91 µM. In addition, the TGI with SW-620 colon was above 100 µM; in the test with 786-0 renal, 34 µM; in the test on MCF7 breast it was above 100 µM; in the test on PC-3 prostate, 34.7 µM; in the test with RPMI-8226 leukemia, 21.9 µM.

Turning to `COC1=CC(C2c3cc4c(cc3[C@@H](Nc3ccc(F)cc3)C3COC(=O)[C@H]23)OCO4)=CC(=O)C1=O` (stereo partly drawn), the TGI was above 50.1 µM in the test with SW-620 colon; 11.4 µM with 786-0 renal; 36.6 µM in the test on MALME-3M melanoma; 41.5 µM in the test on COLO 205 colon; above 100 µM with RPMI-8226 leukemia; 35.6 µM in the test on LOX IMVI melanoma. In addition, the TGI with OVCAR-4 ovarian is above 61.2 µM; in the test with SK-OV-3 ovarian, 23.1 µM.

For the molecule `C1CCCCc2nc3c(nc2CCC1)c1nc2c(nc1c1nc4c(nc31)CCCCCCCC4)CCCCCCCC2`, the TGI in the test with SW-620 colon, in the test on 786-0 renal, in the test on MALME-3M melanoma, in the test on COLO 205 colon, in the test on LOX IMVI melanoma and with SK-OV-3 ovarian was above 100 µM in each case.
